Target: T1, BTK (Homo sapiens, UniProt Q06187)
T1 construct: The GM01501.3 cell line endogenously expresses BTK with a HiBiT fusion tag via CRISPR knock-in at its C-terminal region; endogenous in cells; host or cells: GM01501.3 (GM01501 cells engineered by CRISPR knock-in of HiBiT at the BTK locus)
Test: BTK degradation assay using the HiBiT Method (Nano-Glo HiBiT Lytic Assay, GM01501.3 cells)
Assay type: cell-based
Details: HiBiT Degradation on GM01501.3 BTK @ 6 hours
Method in brief: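 Degradation read-out: HiBiT luminescence after lytic reagent addition, giving DC50. Compounds dosed from 10 μM in 11 half-log steps (duplicate) onto GM01501.3 cells, whose endogenous BTK carries a C-terminal HiBiT knock-in tag; 6 h exposure, 37 °C, 5% CO2.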

T1 sequence (Q06187 whole entry, the tested form may be a part): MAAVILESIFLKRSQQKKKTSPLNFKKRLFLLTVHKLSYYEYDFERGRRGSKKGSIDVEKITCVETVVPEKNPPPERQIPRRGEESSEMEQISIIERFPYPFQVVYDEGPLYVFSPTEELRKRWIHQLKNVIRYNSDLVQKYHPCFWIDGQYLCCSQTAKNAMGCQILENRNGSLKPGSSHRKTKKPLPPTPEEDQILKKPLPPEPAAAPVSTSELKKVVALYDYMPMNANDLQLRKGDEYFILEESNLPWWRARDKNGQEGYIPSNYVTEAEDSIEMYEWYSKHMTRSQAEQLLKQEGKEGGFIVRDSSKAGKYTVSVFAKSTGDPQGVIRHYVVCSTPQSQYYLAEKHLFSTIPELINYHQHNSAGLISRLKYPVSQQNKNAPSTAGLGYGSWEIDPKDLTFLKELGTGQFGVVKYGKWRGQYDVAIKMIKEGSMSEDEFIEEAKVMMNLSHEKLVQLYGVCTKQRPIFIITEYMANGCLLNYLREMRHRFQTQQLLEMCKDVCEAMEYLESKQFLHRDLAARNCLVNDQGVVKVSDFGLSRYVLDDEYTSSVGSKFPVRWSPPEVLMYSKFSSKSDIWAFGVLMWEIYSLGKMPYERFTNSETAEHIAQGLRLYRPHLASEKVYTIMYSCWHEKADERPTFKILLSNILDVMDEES

Structure (SMILES)	DC50 [nM]
Cc1cc(-c2ncnn3cc(-c4ccc(OCCN5CCC(c6ccc(CN7CCC(=O)NC7=O)cc6)CC5)cc4)cc23)ccc1CNC(=O)c1noc(C(C)(C)C)n1 [Example 106, 5-tert-butyl-N-[[4-[6-[4-[2-[4-[4-[(2,4-dioxohexahydropyrimidin-1-yl)methyl]phenyl]-1-piperidyl]ethoxy]phenyl]pyrrolo[2,1-f][1,2,4]triazin-4-yl]-2-methyl-phenyl]methyl]-1,2,4-oxadiazole-3-carboxamide]	< 100
Cc1cc(-c2ncnn3cc(-c4ccc(OCCN5CCC(c6ccc(OC7CCC(=O)NC7=O)cc6)CC5)cc4)cc23)ccc1CNC(=O)c1noc(C(C)(C)C)n1 (stereo not shown) [Example 107, 5-tert-butyl-N-[[4-[6-[4-[2-[4-[4-[(2,6-dioxo-3-piperidyl)oxy]phenyl]-1-piperidyl]ethoxy]phenyl]pyrrolo[2,1-f][1,2,4]triazin-4-yl]-2-methyl-phenyl]methyl]-1,2,4-oxadiazole-3-carboxamide]	< 100
CC(C)(C)c1nc(C(=O)NCc2ccc(-c3ncnn4cc(-c5ccc(OCCN6CCC(n7ccc(NC8CCC(=O)NC8=O)n7)CC6)cc5)cc34)cc2F)no1 (stereo not shown) [Example 108, 5-tert-butyl-N-[[4-[6-[4-[2-[4-[3-[(2,6-dioxo-3-piperidyl)amino]pyrazol-1-yl]-1-piperidyl]ethoxy]phenyl]pyrrolo[2,1-f][1,2,4]triazin-4-yl]-2-fluoro-phenyl]methyl]-1,2,4-oxadiazole-3-carboxamide]	< 100
Cn1nc(N2CCC(=O)NC2=O)c2ccc(C3CCN(CCOc4ccc(-c5cc6c(-c7ccc(CNC(=O)c8noc(C(C)(C)C)n8)c(F)c7)ncnn6c5)cc4)CC3)cc21 [Example 109]	< 100
CC(C)(C)c1nc(C(=O)NCc2ccc(-c3ncnn4cc(-c5ccc(OCCN6CCC(c7ccc(NC8CCC(=O)NC8=O)nc7)CC6)cc5)cc34)cc2F)no1 (stereo not shown) [Example 110, 5-tert-butyl-N-[[4-[6-[4-[2-[4-[6-[(2,6-dioxo-3-piperidyl)amino]-3-pyridyl]-1-piperidyl]ethoxy]phenyl]pyrrolo[2,1-f][1,2,4]triazin-4-yl]-2-fluoro-phenyl]methyl]-1,2,4-oxadiazole-3-carboxamide]	< 100
CC(C)(C)c1nc(C(=O)NCc2ccc(-c3ncnn4cc(-c5ccc(OCCN6CCC(c7ccc(C8(C)CCC(=O)NC8=O)cc7)CC6)cc5)cc34)cc2F)no1 (stereo not shown) [Example 111, 5-tert-butyl-N-[[2-fluoro-4-[6-[4-[2-[4-[4-(3-methyl-2,6-dioxo-3-piperidyl)phenyl]-1-piperidyl]ethoxy]phenyl]pyrrolo[2,1-f][1,2,4]triazin-4-yl]phenyl]methyl]-1,2,4-oxadiazole-3-carboxamide]	< 100
Cc1cc(-c2ncnn3cc(-c4ccc(OCCCCN5CCC(c6ccc(NC7CCC(=O)NC7=O)cc6)CC5)cc4)cc23)ccc1CNC(=O)c1nc(C(C)(C)C)ns1 (stereo not shown) [Example 112, 3-tert-butyl-N-[[4-[6-[4-[4-[4-[4-[(2,6-dioxo-3-piperidyl)amino]phenyl]-1-piperidyl]butoxy]phenyl]pyrrolo[2,1-f][1,2,4]triazin-4-yl]-2-methyl-phenyl]methyl]-1,2,4-thiadiazole-5-carboxamide]	< 100
Cc1cc(-c2ncnn3cc(-c4ccc(OCCCCN5CCC(c6ccc(NC7CCC(=O)NC7=O)cc6)CC5)cc4)cc23)ccc1CNC(=O)c1noc(C(C)(C)C)n1 (stereo not shown) [Example 113, -tert-butyl-N-[[4-[6-[4-[4-[4-[4-[(2,6-dioxo-3-piperidyl)amino]phenyl]-1-piperidyl]butoxy]phenyl]pyrrolo[2,1-f][1,2,4]triazin-4-yl]-2-methyl-phenyl]methyl]-1,2,4-oxadiazole-3-carboxamide]	< 100
Cc1cc(-c2ncnn3cc(-c4ccc(OCCCCCCN5CCC(c6ccc(NC7CCC(=O)NC7=O)cc6)CC5)cc4)cc23)ccc1CNC(=O)c1noc(C(C)(C)C)n1 (stereo not shown) [Example 114, 5-tert-butyl-N-[[4-[6-[4-[6-[4-[4-[(2,6-dioxo-3-piperidyl)amino]phenyl]-1-piperidyl]hexoxy]phenyl]pyrrolo[2,1-f][1,2,4]triazin-4-yl]-2-methyl-phenyl]methyl]-1,2,4-oxadiazole-3-carboxamide]	< 100
Cc1cc(-c2ncnn3cc(-c4ccc(OCCCCCCCCN5CCC(c6ccc(NC7CCC(=O)NC7=O)cc6)CC5)cc4)cc23)ccc1CNC(=O)c1noc(C(C)(C)C)n1 (stereo not shown) [Example 115, -tert-butyl-N-[[4-[6-[4-[8-[4-[4-[(2,6-dioxo-3-piperidyl)amino]phenyl]-1-piperidyl]octoxy]phenyl]pyrrolo[2,1-f][1,2,4]triazin-4-yl]-2-methyl-phenyl]methyl]-1,2,4-oxadiazole-3-carboxamide]	< 100
Cc1cc(-c2ncnn3cc(CCN4CCC(c5ccc(C6CCC(=O)NC6=O)cc5)CC4)cc23)ccc1CNC(=O)c1noc(C(C)(C)C)n1 (stereo not shown) [Example 116, 5-tert-butyl-N-[[4-[6-[2-[4-[4-(2,6-dioxo-3-piperidyl)phenyl]-1-piperidyl]ethyl]pyrrolo[2,1-f][1,2,4]triazin-4-yl]-2-methyl-phenyl]methyl]-1,2,4-oxadiazole-3-carboxamide]	< 100
Cc1cc(-c2ncnn3cc(CCN4CCC(c5ccc(NC6CCC(=O)NC6=O)cc5)CC4)cc23)ccc1CNC(=O)c1noc(C(C)(C)C)n1 (stereo not shown) [Example 117, 5-tert-butyl-N-[[4-[6-[2-[4-[4-[(2,6-dioxo-3-piperidyl)amino]phenyl]-1-piperidyl]ethyl]pyrrolo[2,1-f][1,2,4]triazin-4-yl]-2-methyl-phenyl]methyl]-1,2,4-oxadiazole-3-carboxamide]	< 100
Cc1cc(-c2ncnn3cc(CCN4CCC(c5ccc(OC6CCC(=O)NC6=O)cc5)CC4)cc23)ccc1CNC(=O)c1noc(C(C)(C)C)n1 (stereo not shown) [Example 118, 5-tert-butyl-N-[[4-[6-[2-[4-[4-[(2,6-dioxo-3-piperidyl)oxy]phenyl]-1-piperidyl]ethyl]pyrrolo[2,1-f][1,2,4]triazin-4-yl]-2-methyl-phenyl]methyl]-1,2,4-oxadiazole-3-carboxamide]	< 100
Cc1cc(-c2ncnn3cc(CCN4CCC(c5ccc(C6CCC(=O)NC6=O)cc5)C(F)(F)C4)cc23)ccc1CNC(=O)c1noc(C(C)(C)C)n1 (stereo not shown) [Example 119, 5-tert-butyl-N-[[4-[6-[2-[4-[4-(2,6-dioxo-3-piperidyl)phenyl]-3,3-difluoro-1-piperidyl]ethyl]pyrrolo[2,1-f][1,2,4]triazin-4-yl]-2-methyl-phenyl]methyl]-1,2,4-oxadiazole-3-carboxamide]	< 100
CC(C)(C)c1nc(C(=O)NCc2ccc(-c3ncnn4cc(CCN5CCC(c6ccc(NC7CCC(=O)NC7=O)cc6)CC5)cc34)cc2F)no1 (stereo not shown) [Example 120, 5-tert-butyl-N-[[4-[6-[2-[4-[4-[(2,6-dioxo-3-piperidyl)amino]phenyl]-1-piperidyl]ethyl]pyrrolo[2,1-f][1,2,4]triazin-4-yl]-2-fluoro-phenyl]methyl]-1,2,4-oxadiazole-3-carboxamide]	< 100
CC(C)(C)c1nc(C(=O)NCc2ccc(-c3ncnn4cc(CCN5CCC(c6ccc(C7(C)CCC(=O)NC7=O)cc6)CC5)cc34)cc2F)no1 (stereo not shown) [Example 121, 5-tert-butyl-N-[[2-fluoro-4-[6-[2-[4-[4-(3-methyl-2,6-dioxo-3-piperidyl)phenyl]-1-piperidyl]ethyl]pyrrolo[2,1-f][1,2,4]triazin-4-yl]phenyl]methyl]-1,2,4-oxadiazole-3-carboxamide]	100 to 500
CC(C)(C)c1nc(C(=O)NCc2ccc(-c3ncnn4cc(CCN5CCC(c6ccc(NC7CCC(=O)NC7=O)cn6)CC5)cc34)cc2F)no1 (stereo not shown) [Example 122, 5-tert-butyl-N-[[4-[6-[2-[4-[5-[(2,6-dioxo-3-piperidyl)amino]-2-pyridyl]-1-piperidyl]ethyl]pyrrolo[2,1-f][1,2,4]triazin-4-yl]-2-fluoro-phenyl]methyl]-1,2,4-oxadiazole-3-carboxamide]	< 100
CC(C)(C)c1nc(C(=O)NCc2ccc(-c3ncnn4cc(CCN5CCC(n6ccc(NC7CCC(=O)NC7=O)n6)CC5)cc34)cc2F)no1 (stereo not shown) [Example 123, 5-tert-butyl-N-[[4-[6-[2-[4-[3-[(2,6-dioxo-3-piperidyl)amino]pyrazol-1-yl]-1-piperidyl]ethyl]pyrrolo[2,1-f][1,2,4]triazin-4-yl]-2-fluoro-phenyl]methyl]-1,2,4-oxadiazole-3-carboxamide]	100 to 500
Cn1nc(N2CCC(=O)NC2=O)c2ccc(C3CCN(CCc4cc5c(-c6ccc(CNC(=O)c7noc(C(C)(C)C)n7)c(F)c6)ncnn5c4)CC3)cc21 [Example 124]	< 100
Cc1cc(-c2ncnn3cc(CN(C)CCN4CCC(c5ccc(C6CCC(=O)NC6=O)cc5)CC4)cc23)ccc1CNC(=O)c1noc(C(C)(C)C)n1 (stereo not shown) [Example 125, 5-tert-butyl-N-[[4-[6-[[2-[4-[4-(2,6-dioxo-3-piperidyl)phenyl]-1-piperidyl]ethyl-methyl-amino]methyl]pyrrolo[2,1-f][1,2,4]triazin-4-yl]-2-methyl-phenyl]methyl]-1,2,4-oxadiazole-3-carboxamide]	< 100
Cc1cc(-c2ncnn3cc(CN4CCN(CCCc5ccc(NC6CCC(=O)NC6=O)cc5)CC4)cc23)ccc1CNC(=O)c1noc(C(C)(C)C)n1 (stereo not shown) [Example 126, 5-tert-butyl-N-[[4-[6-[[4-[3-[4-[(2,6-dioxo-3-piperidyl)amino]phenyl]propyl]piperazin-1-yl]methyl]pyrrolo[2,1-f][1,2,4]triazin-4-yl]-2-methyl-phenyl]methyl]-1,2,4-oxadiazole-3-carboxamide]	100 to 500
Cc1cc(-c2ncnn3cc(CCCN4CCC(c5ccc(NC6CCC(=O)NC6=O)cc5)CC4)cc23)ccc1CNC(=O)c1noc(C(C)(C)C)n1 (stereo not shown) [Example 127, 5-tert-butyl-N-[[4-[6-[3-[4-[4-[(2,6-dioxo-3-piperidyl)amino]phenyl]-1-piperidyl]propyl]pyrrolo[2,1-f][1,2,4]triazin-4-yl]-2-methyl-phenyl]methyl]-1,2,4-oxadiazole-3-carboxamide]	< 100

— patent US20240287076A1, “COMPOUNDS FOR TARGETING DEGRADATION OF BRUTON'S TYROSINE KINASE” (BIOGEN MA INC., priority 2021, published 2024)
